Reference: patent EP0209274A2, “Furanone derivatives” (ELI LILLY AND COMPANY, priority 1985, dated 1987)

Experiments:
[1] = molecular target: Pancreatic phospholipase A2 (Homo sapiens, UniProt P04054); test: Phospholipase A2 (PLA2) Assay; assay type: biochemical; settings: 30 µg/ml test compound; inhibition of 14C-free fatty acid formation
Procedure: The assay buffer contained 10 mM Tris-HCl buffer, pH 8.0, 100 mM NaCl, 1 mM CaCl2 and 1 mg/ml of bovine serum albumin. A toluene-ethanol (1:1 v/v) solution of phosphatidiylcholine, L-a-dipalmitoyl-(2-palmitoyl-1-^14C) obtained from New England Nuclear was evaporated to dryness in a flask under nitrogen and the assay buffer was added to give a substrate concentration of 9.0 x 10^-5M (specific activity = 27.7 mCi/mmol). The mixture was sonicated for 5 minutes in a Bransonic 220 Sonication Bath. Pancreatic phospholipase A2 (specific activity = 600 units/mg) was diluted with the assay buffer to give an enzyme concentration of 0.1 mg/ml. […] To initiate the enzyme reaction, 0.1 ml of the mixture containing the substrate was added to the enzyme solution and the reaction mixture was further incubated for 30 minutes at 37°C. The reaction was then terminated by the addition of 20 µl of 1M citric acid.
Fifty µl of the mixture was added to 10 ml of scintillation fluid [5.88 g of 2,5-diphenyl-oxazole and 118 mg of 1,4-bis(5-phenyloxazol-2-yl)benzene] dissolved in 650 ml of toluene and 350 ml of Triton X-100) and the radioactivity was determined in an Isocap/300 liquid scintillation counter (Searle Analytic Inc., Southfield, Michigan). Another 50 µl of the mixture was applied directly onto the spotting area of a silica gel plate (LK6D, Whatman, Clifton, N.J.) and subjected to thin layer chromatography in a solvent system of ethyl acetate:acetic acid:2,2,4-trimethylpentane:H20 (90:20:50:100, v/v/v). The silica gel on the plate was scraped in 1 cm sections, suspended in 5 ml of the Triton X-100 based scintillation fluid and the radioactivity was determined. Phosphatidylcholine remained at the origin while fatty acids migrated to a few centimeters (2-3 cm) below the solvent front. The percent of ^14C-free fatty acid formed with the test compound added was calculated as compared to the amount formed in control experiments where no test compound was added. […]

5-Lipoxygenase = molecular target: T1, 5-Lipoxygenase (Cavia porcellus, UniProt A0A286X958); test: 5-Lipoxygenase (5-LPO) Assay; assay type: biochemical, guinea pigs; settings: inhibition of 5-HETE formation; supernatant of guinea pig PMNL sonicate; read-out: 5-LPO IC50 (µg/ml) (converted)
T1 construct: The PMNL suspension was disrupted by five ½-second pulse sonication; from tissue; host or cells: guinea pig peritoneal polymorphonuclear leukocytes (30,000 x g supernatant of the sonicate)
T1 sequence (A0A286X958 1-674): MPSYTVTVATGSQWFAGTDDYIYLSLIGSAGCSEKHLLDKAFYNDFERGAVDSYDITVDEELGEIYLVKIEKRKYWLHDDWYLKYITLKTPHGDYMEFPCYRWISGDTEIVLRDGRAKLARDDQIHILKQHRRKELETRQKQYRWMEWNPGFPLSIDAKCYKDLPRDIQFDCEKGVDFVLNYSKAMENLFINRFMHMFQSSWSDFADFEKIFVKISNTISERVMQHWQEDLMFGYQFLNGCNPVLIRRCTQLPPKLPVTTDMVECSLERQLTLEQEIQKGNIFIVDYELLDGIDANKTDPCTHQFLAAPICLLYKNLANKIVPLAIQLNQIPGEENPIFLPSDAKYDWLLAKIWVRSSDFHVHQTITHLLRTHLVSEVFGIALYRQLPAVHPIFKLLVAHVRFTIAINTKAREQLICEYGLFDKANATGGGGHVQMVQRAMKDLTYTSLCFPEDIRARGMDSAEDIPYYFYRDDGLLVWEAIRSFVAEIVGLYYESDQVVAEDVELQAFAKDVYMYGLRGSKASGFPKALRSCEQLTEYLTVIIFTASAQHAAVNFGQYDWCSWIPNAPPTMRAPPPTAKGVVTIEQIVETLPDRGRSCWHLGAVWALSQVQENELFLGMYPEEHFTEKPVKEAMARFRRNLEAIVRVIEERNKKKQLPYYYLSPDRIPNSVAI
Procedure: Ten milliliters of a 2% casein solution were injected intraperitoneally to guinea pigs weighing 250-300 gm. After 16-18 hours, the guinea pigs were killed by suffocation in a carbon dioxide chamber. The peritoneal cavity was infused with 70 ml of saline and 40-50 ml of the fluid were recovered from the cavity. After centrifugation, cell pellets were washed twice in Hank's balanced salt solution (HBSS) without calcium ion.
The cells were then suspended in 5 ml of sodium phosphate buffer, pH 7.1 containing 1 mM EDTA, and 0.1% gelatin. About 20-30 x 10^7 cells were obtained from one guinea pig.
The PMNL suspension was disrupted by five ½-second pulse sonication at the setting of 3 in a Branson Sonifier, Model 350, equipped with a microtip. The sonicates were combined and centrifuged at 30,000 x g for 10 minutes. The supernatant was kept frozen at -70°C until use.
. Enzyme activity was determined by assaying for 5-HETE formatiun by first incubating 0.2 ml of the supernatant obtained from the PMNL sonicate with the test compound, 1 mM CaCl2, 2 mM ATP, and 1 mM GSH for 5 minutes at 37°C. The mixture is treated with 5 pM ^14C-arachidonic acid and incubated at 37°C an additional 10 minutes. The enzyme reaction was then stopped by the addition of 10 µl of 1M citric acid and 10 µl of an alcohol solution containing 20 mg/ml each of indomethacin and butylated hydroxyanisole (BHA). The reaction mixture was spotted (50 µl) on a silica gel plate (Baker TLC plate S1250-PA-19C) and subjected to TLC in a solvent system of ethyl acetate/2,2,4-tri- methylpentane/glacial acetic acid/H20 (90:50:20:100).
The radioactivity of the arachidonic acid and its metabolites (5-HETE and LTB4) was visualized from a developed x-ray film which had been exposed to the TLC plate 1-2 days. The amount of 5-HETE formed was quanti- tated by scraping the silica gel area corresponding to the spot on the x-ray film, and the radioactivity determined in a Isocap/300 liquid scintillation counter (Searle Analytic, Inc.).
The percent inhibition of the formation of 5-HETE was determined for each concentration of test compound tested as compared to a control experiment wherein no test compound was added. The concentration and percent inhibition values were plotted on semi log paper and the concentration in which formation of 5-HETE is inhibited by 50% (ICso) was determined by interpolation.

Chain of Pancreatic phospholipase A2 (P04054 23-148): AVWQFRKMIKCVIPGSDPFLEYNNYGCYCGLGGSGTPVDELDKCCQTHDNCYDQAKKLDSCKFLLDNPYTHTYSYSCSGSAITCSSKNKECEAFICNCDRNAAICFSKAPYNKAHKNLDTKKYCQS

Row | SMILES | inhibition at 30 µg/mL [1] | IC50 (5-Lipoxygenase)
1 | CCCCC/C=C\C/C=C\CCCCCCC1=CC(=O)OC1O (centres unmarked) [Example 1, (Z,Z)-4-(7,10-hexadecadienyl)-5-hydroxy-2-(5H)-furanone] | 77% | 1.25 to 3.12 µM
2 | CC/C=C\C/C=C\C/C=C\CCCCCCC1=CC(=O)OC1O (centres unmarked) [Example 2, (Z,Z,Z)-4-(7,10,13-hexadecatrienyl)-5-hydroxy-2(5H)-furanone] | 82% | 0.471 to 1.88 µM
3 | CCCCC/C=C\C/C=C\C/C=C\C/C=C\CCC1=CC(=O)OC1O (centres unmarked) [Example 3, (Z,Z,Z,Z)-5-hydroxy-4-(3,6,9,12-octa-decatetraenyl)-2(5H)-furanone] | 41% | 0.435 to 1.16 µM
4 | CCCCCCCC/C=C/CCCCCCC1=CC(=O)OC1O (centres unmarked) [Example 4, (E)-4-(7-hexadecenyl)-5-hydroxy-2(5H)-furanone] | 0% | ~3.1 µM
5 | CCCCC/C=C\C/C=C\C/C=C\CCCC1=CC(=O)OC1O (centres unmarked) [Example 5, (Z,Z,Z)-4-(4,7,10-hexadecatrienyl)-5-hydroxy-2(5H)-furanone] | 77% | 1.57 to 4.71 µM
6 | CC/C=C\C/C=C\C/C=C\C/C=C\C/C=C\C/C=C\CC1=CC(=O)OC1O (centres unmarked) [Example 9, (Z,Z,Z,Z,Z,Z)-4-(2,5,8,11,14,17-eicosa-hexaenyl)-5-hydroxy-2(5H)-furanone] | 0% | 2.17 to 16.3 µM
7 | CCCCCCCC/C=C\CCCCCCC1=CC(=O)OC1O (centres unmarked) [Example 11, (Z)-4-(7-hexadecenyl)-5-hydroxy-2(5H)-furanone] | 51% | 1.24 µM
8 | O=C1C=C(CCCCOc2ccc3ccccc3c2)C(O)O1 (centres unmarked) [Example 12, 5-Hydroxy-4-[4-(2-naphthalenyloxy)butyl]-2(5H)-furanone] | 72% | 16.8 to 40.2 µM
9 | CC(C)=CCCC(C)=CCCC(C)=CCCC1=CC(=O)OC1O (centres unmarked) [Example 13, 5-Hydroxy-4-(4,8,12-trimethyl-3,7,11-tri-decatrienyl)-2(5H)-furanone] | 50% | 25.1 µM
10 | CC(C)=CCC/C(C)=C/CCC1=CC(=O)OC1O (centres unmarked) [Example 14, (E,E)-4-(4,8-dimethyl-3,7-nonadienyl)-5-hydroxy-2(5H)-furanone] | 72% | 24 µM
11 | CC(C)=CCCC(C)=CCCC(C=O)=CCCC1=CC(=O)OC1O (centres unmarked) [Example 15, 2-[3-(2,5-dihydro-2-hydroxy-5-oxo-3-furanyl)-propylidene]-6,10-dimethyl-5,9-undecadienal] | 88% | 0.241 µM
12 | O=C1C=C(CCCCCOc2ccccc2Cc2ccccc2)C(O)O1 (centres unmarked) [Example 18, 5-Hydroxy-4-[5-(2-benzylphenoxy)pentyl]-2(5H)-furanone] | 44% | 28.4 µM
13 | CC(C)=CCCC(C)=CCCC(=CCCC1=CC(=O)OC1O)CO (centres unmarked) [Example 19, 5-Hydroxy-4-[4-(hydroxymethyl)-8,12-dimethyl-3,7,11-tridecatrienyl]-2(5H)-furanone] | 76% | 4.48 µM
